Measured values taken from US20190183910A1, “ENHANCING DNA REPAIR AND PREVENTING AGING AND ITS CONSEQUENCES IN REPRODUCTIVE AND OTHER CELLS” (NEW YORK MEDICAL COLLEGE, priority 2016, published 2019).

How the values were obtained:
[1] = post-transplantation clinical trials; cited from earlier work
[2] = clinical use, FDA-approved for multiple sclerosis; cited from earlier work
mouse sperm [3] = assay: Alkaline comet assay on mouse sperm; type: cell-based; details: mouse sperm, H2O2 alone (1 mM), without ATM inhibitor, n=9, mean±SEM
Experimental: (§1) Treatment was performed with genotoxic stress (1 mM H2O2), S1P (200 μM), and S1P with genotoxic stress and control in culture for one hour. Also, the use of an ATM inhibitor was utilized (10 μM) (KU-55593, Abcam) (Li et al., 2014). We assessed DNA damage, apoptosis, and chromatin integrity. We also studied the DNA DSB repair gene expression by qRT-PCR in sperm lysates.
Slides were prepared 48 hours prior to experimentation by coating normal glass microscope slides with 500 μl normal melting point agar (0.5% w/v in PBS) solution and left to dry at room temperature for no less than 48 hours. Then, 10 μl of mouse sperm suspension was mixed with 90 μl of 0.5% LMPA. Then this 100 μl solution was added to the NMPA-coated slides. Coverslips were added and slides were placed on a metallic tray on ice and in the dark for 5 minutes. The cover slips were removed and a 90 μl layer of LMPA was added. Cover slips were subsequently replaced before the LMPA hardened. Slides were then kept in the dark on ice again for another 5 minutes. After ten minutes, the cover slips were removed and slides were placed in staining jars containing ice cold lysing solution (2.5 M NaCl, 200 mM NaOH, 100 mM EDTA, 10 mM Trizma Base, 1% Triton X-100 and 10% DMSO [pH 10]) for 1.5 hours at 4° C. in a dark place.
After this lysis step, the slides were washed three times for 5 minutes with TE buffer (pH 8.0), and then placed flatly in the electrophoresis tank face up for 30 minutes to achieve the unwinding of the DNA. The alkaline electrophoresis buffer in this tank included 300 mM NaOH and 1 mM EDTA [pH13]. This incubation period was used to achieve the alkaline unwinding of the DNA. Electrophoresis was then performed at 25 V, 300 mA for 30 minutes. After this, slides were washed twice in neutralization buffer (0.4 M Tris, pH 7.5) for 5 minutes each. Before analysis could occur, the sperm within the slides needed to be fixed by draining the slides well on paper towels and then subjecting them to two 10 minute washes in ethanol, and then air drying at room temperature for 5 minutes. Ethidium bromide (50 μl at 10 μg/ml in water) was then added on the slide, and sealed with a cover slip. Slides were kept moist, wrapped in aluminum foil to prevent light exposure, and stored at 4° C. until analysis (Williams et al., 2014).
Slides from both alkaline and neutral comets were imaged by fluorescence microscopy using a Nikon OPTIPHOT microscope. ImageJ was used for comet assay analysis, which calculated tail length, tail moment, and % of DNA in the tail. […] To analyze the slides, an oval around the sperm head was drawn and calculated and then an oval around the sperm tail was drawn and calculated. […] It was calculated as the Pythagorean distance between two points. […]

human sperm = assay: Alkaline comet assay on human sperm; type: cell-based; details: H2O2 alone, without ATM inhibitor, n=3, mean±SEM
mouse sperm [4] = assay: Neutral comet assay on mouse sperm; type: cell-based; details: mouse sperm, H2O2 alone (1 mM), without ATM inhibitor, n=9, mean±SEM
Experimental: as §1
Slides were prepared 48 hours prior to experimentation by coating normal glass microscope slides with 500 μl normal melting point agar (NMPA, 0.5% w/v in PBS) solution and left to dry at room temperature for no less than 48 hours. Once samples were obtained, 10 μl of mouse sperm suspension was mixed with 90 μl of 0.5% low melting point agar (LMPA). Then, this 100 μl solution was added to the NMPA-coated slides. Coverslips were added and slides were placed on a metallic tray on ice and in the dark for 5 minutes. The cover slips were then removed and another layer of LMPA was added. Cover slips were subsequently replaced before the LMPA hardened. Slides were then kept in the dark on ice again for another 5 minutes. After ten minutes, the cover slips were removed and slides were placed in staining jars containing ice cold lysing solution (2.5 M NaCl, 100 mM EDTA, sodium N-laurylsacrosinate [SLS]. [1% w/v] and 10 mM Trizma base pH10, and 1% Triton-X-100 and 10% DMSO [immediately adding before use]) for 1 hour at 4° C. in a dark place.
After this lysis step, the slides were washed three times for 5 minutes with the cold electrophoresis buffer (0.089 M Tris base, 0.089 M boric acid and 2 mM EDTA [pH 8.3]), and then placed flatly in the electrophoresis tank face up for 30 minutes. This incubation period was used to achieve the unwinding of the DNA. Electrophoresis was then performed at 18 V for 60 minutes. After this, slides were washed twice in PBS for 5 minutes each. Before analysis could occur, the sperm within the slides needed to be fixed by two 10 minute washes in ethanol, and then air drying at room temperature. Ethidium bromide (50 μl at 10 μg/ml in water) was then added on the slide, and sealed with a cover slip. Slides were kept moist, wrapped in aluminum foil to prevent light exposure, and stored at 4° C. until analysis (Smart et al., 2008).
Slides from both alkaline and neutral comets were imaged by fluorescence microscopy using a Nikon OPTIPHOT microscope. ImageJ was used for comet assay analysis, which calculated tail length, tail moment, and % of DNA in the tail. […] The comets were “on scale” for the calculations to be correct (the brightest pixels of interest were below 255 on an 8-bit scale). […] To analyze the slides, an oval around the sperm head was drawn and calculated and then an oval around the sperm tail was drawn and calculated. […] It was calculated as the Pythagorean distance between two points. […]

Structure (SMILES)	benefit as antirejection medication [1]	safety profile [2]	percent tail DNA, alkaline comet (mouse sperm [3])	percent tail DNA, alkaline comet (human sperm)	percent tail DNA, neutral comet (mouse sperm [4])
CCCCCCCCc1ccc(CCC(N)(CO)CO)cc1 [FTY720]	failed to show any significant benefit	acceptable safety profile			
OO [H2O2, reference compound]			27.3±0.90%	24.0±1.70%	29.6±0.64%
